Measured values published in ChEMBL document CHEMBL1137195, “SAR and pharmacokinetic studies on phenethylamide inhibitors of the hepatitis C virus NS3/NS4A serine protease” (Bioorg Med Chem Lett, 2004).

system: not listed separately; test: plasma clearance in rats at 2 mg/kg; type: ADME, organism-based; set-up: dose 2 mg/kg; conditions: rat

Row | clearance | SMILES
1 | 46 mL/min/kg | CC(C)COC(=O)N[C@H](C(=O)N1C[C@H](C2CCCCC2)C[C@H]1C(=O)N[C@@H](CC(F)F)C(=O)NCCc1c(F)cc(C(=O)NS(C)(=O)=O)cc1F)C(C)C

system: not listed separately; test: Half life in rats; type: ADME; conditions: rat, in vivo

Row | half-life | SMILES
2 | 74 min | CC(C)COC(=O)N[C@H](C(=O)N1C[C@H](C2CCCCC2)C[C@H]1C(=O)N[C@@H](CC(F)F)C(=O)NCCc1c(F)cc(-c2nnn[nH]2)cc1F)C(C)C
3 | 72 min | CC(C)COC(=O)N[C@H](C(=O)N1CC(c2ccccc2)C[C@@H]1C(=O)N[C@@H](CC(F)F)C(=O)NCCc1c(F)cc(C(=O)O)cc1F)C(C)C (some centres undefined)
4 | 15 min | CC(C)COC(=O)N[C@H](C(=O)N1CC(C2CCCCC2)C[C@@H]1C(=O)N[C@@H](CC(F)F)C(=O)NCCc1c(F)cc(C(=O)O)cc1F)C(C)C (some centres undefined)
5 | 48 min | CC(C)COC(=O)N[C@H](C(=O)N1CC(OCc2ccccc2)C[C@@H]1C(=O)N[C@@H](CC(F)F)C(=O)NCCc1c(F)cc(C(=O)O)cc1F)C(C)C (stereo in doubt; trans)

biological target: Hepatitis C virus serine protease, NS3/NS4A (Hepatitis C virus, UniProt A3EZI9+D2K2A8); test: (§1) Inhibitory activity against Hepatitis C virus Non structural protein 3 serine protease/Non structural protein 4A serine protease; type: protein-complex assay, Hepacivirus hominis; conditions: not given
Sequence (D2K2A8 whole entry): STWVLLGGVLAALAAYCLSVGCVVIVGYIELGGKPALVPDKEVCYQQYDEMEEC
Sequence (A3EZI9 whole entry): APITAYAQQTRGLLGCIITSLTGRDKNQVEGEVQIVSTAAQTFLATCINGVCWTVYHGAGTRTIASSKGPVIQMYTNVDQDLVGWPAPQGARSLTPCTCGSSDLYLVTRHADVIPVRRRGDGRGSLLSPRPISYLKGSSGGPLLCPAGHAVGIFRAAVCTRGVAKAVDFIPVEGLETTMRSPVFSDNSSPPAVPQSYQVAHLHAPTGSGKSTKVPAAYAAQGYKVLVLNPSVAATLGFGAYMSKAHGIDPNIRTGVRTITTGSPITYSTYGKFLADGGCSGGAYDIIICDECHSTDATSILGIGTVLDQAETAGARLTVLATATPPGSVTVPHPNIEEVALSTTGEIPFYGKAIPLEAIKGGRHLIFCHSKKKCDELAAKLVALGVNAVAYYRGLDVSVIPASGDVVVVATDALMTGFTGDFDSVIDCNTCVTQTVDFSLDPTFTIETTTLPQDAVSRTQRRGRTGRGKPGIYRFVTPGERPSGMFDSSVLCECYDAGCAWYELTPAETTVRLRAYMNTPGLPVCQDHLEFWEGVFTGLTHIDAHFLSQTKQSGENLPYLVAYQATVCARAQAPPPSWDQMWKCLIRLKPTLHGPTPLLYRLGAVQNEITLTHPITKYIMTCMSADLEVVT

Row | SMILES | Ki
6 | CC(C)COC(=O)N[C@H](C(=O)N1C[C@H](C2CCCCC2)C[C@H]1C(=O)N[C@@H](CC(F)F)C(=O)NCCc1cccc(NC(C(=O)O)c2ccccc2)c1)C(C)C (some centres undefined) | 0.65 µM
7 | CC(C)COC(=O)N[C@H](C(=O)N1C[C@H](c2ccccc2)C[C@H]1C(=O)N[C@@H](CC(F)F)C(=O)NCCc1cccc(/C=C/C(=O)O)c1)C(C)C | 1.3 µM
8 | COc1ccc2c(O[C@@H]3C[C@@H](C(=O)N[C@@H](CC(F)F)C(=O)NCCc4c(F)cc(C(=O)O)cc4F)N(C(=O)C(NC(=O)OCC(C)C)C(C)(C)C)C3)cc(-c3ccccc3)nc2c1 (some centres undefined) | 0.03 µM
9 | CC(C)COC(=O)N[C@H](C(=O)N1C[C@H](C2CCCCC2)C[C@H]1C(=O)N[C@@H](CC(F)F)C(=O)NCCc1c(F)cc(C(=O)NS(C)(=O)=O)cc1F)C(C)C | 0.45 µM
10 | CC(C)COC(=O)N[C@H](C(=O)N1C[C@H](c2ccccc2)C[C@H]1C(=O)N[C@@H](CC(F)F)C(=O)NCCc1cccc(OC(C(=O)O)c2ccccc2)c1)C(C)C (some centres undefined) | 1 µM
11 | CC(C)COC(=O)N[C@H](C(=O)N1C[C@H](C2CCCCC2)C[C@H]1C(=O)N[C@@H](CC(F)F)C(=O)NCCc1c(F)ccc(OCC(=O)O)c1F)C(C)C | 0.19 µM
12 | CC(C)COC(=O)N[C@H](C(=O)N1C[C@H](c2ccccc2)C[C@H]1C(=O)N[C@@H](CC(F)F)C(=O)NCCc1cccc(/C=C/C(=O)O)c1F)C(C)C | 0.4 µM
13 | CC(C)COC(=O)N[C@H](C(=O)N[C@@H](CC(C)C)C(=O)N[C@@H](CC(F)F)C(=O)NCCc1c(F)cc(C(=O)O)cc1F)C(C)C | 0.4 µM
14 | CC(C)COC(=O)N[C@H](C(=O)N1C[C@H](C2CCCCC2)C[C@H]1C(=O)N[C@@H](CC(F)F)C(=O)NCCc1c(F)cc(-c2nnn[nH]2)cc1F)C(C)C | 0.1 µM
15 | CC(C)COC(=O)N[C@H](C(=O)N[C@@H](CC(C)C)C(=O)N[C@@H](CC(F)F)C(=O)NCCc1ccc(C(=O)O)cc1Cl)C(C)C | 1.2 µM

Other lines, results leading:

Row | Ki | SMILES
16 | 0.5 µM | CCC(Nc1cccc(CCNC(=O)[C@H](CC(F)F)NC(=O)[C@@H]2C[C@@H](C3CCCCC3)CN2C(=O)[C@@H](NC(=O)OCC(C)C)C(C)C)c1)C(=O)O (some centres undefined)
17 | 0.12 µM | CC(C)COC(=O)N[C@H](C(=O)N1C[C@H](C2CCCCC2)C[C@H]1C(=O)N[C@@H](CC(F)F)C(=O)NCCc1c(F)ccc(OC(C)C(=O)O)c1F)C(C)C (some centres undefined)
18 | 0.02 µM | COc1ccc2c(O[C@@H]3C[C@@H](C(=O)N[C@@H](CC(F)F)C(=O)NCCc4c(F)cc(C(=O)O)cc4F)N(C(=O)[C@@H](NC(=O)OCC(C)C)C(C)C)C3)cc(-c3csc(NC(C)C)n3)nc2c1
19 | 0.35 µM | CC(C)COC(=O)N[C@H](C(=O)N1C[C@H](c2ccccc2)C[C@H]1C(=O)N[C@@H](CC(F)F)C(=O)NCCc1cc(/C=C/C(=O)O)ccc1F)C(C)C

biological target: T1, Hepatitis C virus serine protease, NS3/NS4A (Hepatitis C virus, UniProt D2K2A8+A3EZI9); test: as §1; type: protein-complex assay, Hepacivirus hominis; conditions: not given
T1 sequence (D2K2A8 whole entry): as the sequence (D2K2A8 whole entry) above
T1 sequence (A3EZI9 whole entry): as the sequence (A3EZI9 whole entry) above

Row | Ki | SMILES
20 | 0.45 µM | CC(C)COC(=O)N[C@H](C(=O)N1CC(c2ccccc2)C[C@@H]1C(=O)N[C@@H](CC(F)F)C(=O)NCCc1c(F)cc(C(=O)O)cc1F)C(C)C (some centres undefined)
21 | 0.35 µM | CC(C)COC(=O)N[C@H](C(=O)N1CC(C2CCCCC2)C[C@@H]1C(=O)N[C@@H](CC(F)F)C(=O)NCCc1c(F)cc(C(=O)O)cc1F)C(C)C (some centres undefined)
22 | 4.5 µM | CC(C)COC(=O)N[C@H](C(=O)N1CC(OCc2ccccc2)C[C@@H]1C(=O)N[C@@H](CC(F)F)C(=O)NCCc1c(F)cc(C(=O)O)cc1F)C(C)C (stereo in doubt; cis)
23 | 0.55 µM | CC(C)COC(=O)N[C@H](C(=O)N1CC(OCc2ccccc2)C[C@@H]1C(=O)N[C@@H](CC(F)F)C(=O)NCCc1c(F)cc(C(=O)O)cc1F)C(C)C (stereo in doubt; trans)

system: not listed separately; test: Area under curve in rats; type: ADME; conditions: rat, in vivo

Row | AUC | SMILES
24 | 12.4 µM·h | CC(C)COC(=O)N[C@H](C(=O)N1C[C@H](C2CCCCC2)C[C@H]1C(=O)N[C@@H](CC(F)F)C(=O)NCCc1c(F)cc(-c2nnn[nH]2)cc1F)C(C)C
25 | 1.3 µM·h | CC(C)COC(=O)N[C@H](C(=O)N1CC(c2ccccc2)C[C@@H]1C(=O)N[C@@H](CC(F)F)C(=O)NCCc1c(F)cc(C(=O)O)cc1F)C(C)C (some centres undefined)
26 | 2.7 µM·h | CC(C)COC(=O)N[C@H](C(=O)N1CC(C2CCCCC2)C[C@@H]1C(=O)N[C@@H](CC(F)F)C(=O)NCCc1c(F)cc(C(=O)O)cc1F)C(C)C (some centres undefined)
27 | 0.4 µM·h | CC(C)COC(=O)N[C@H](C(=O)N1CC(OCc2ccccc2)C[C@@H]1C(=O)N[C@@H](CC(F)F)C(=O)NCCc1c(F)cc(C(=O)O)cc1F)C(C)C (stereo in doubt; trans)

system: not listed separately; test: Volume distribution in rats; type: ADME, organism-based; conditions: rat, in vivo; read-out: Vdss

Row | Vd | SMILES
28 | 0.15 L/kg | CC(C)COC(=O)N[C@H](C(=O)N1C[C@H](C2CCCCC2)C[C@H]1C(=O)N[C@@H](CC(F)F)C(=O)NCCc1c(F)cc(-c2nnn[nH]2)cc1F)C(C)C
29 | 2.4 L/kg | CC(C)COC(=O)N[C@H](C(=O)N1CC(c2ccccc2)C[C@@H]1C(=O)N[C@@H](CC(F)F)C(=O)NCCc1c(F)cc(C(=O)O)cc1F)C(C)C (some centres undefined)
30 | 0.45 L/kg | CC(C)COC(=O)N[C@H](C(=O)N1CC(C2CCCCC2)C[C@@H]1C(=O)N[C@@H](CC(F)F)C(=O)NCCc1c(F)cc(C(=O)O)cc1F)C(C)C (some centres undefined)
31 | 4.5 L/kg | CC(C)COC(=O)N[C@H](C(=O)N1CC(OCc2ccccc2)C[C@@H]1C(=O)N[C@@H](CC(F)F)C(=O)NCCc1c(F)cc(C(=O)O)cc1F)C(C)C (stereo in doubt; trans)

system: not listed separately; test: plasma clearance in rats; type: ADME, organism-based; conditions: rat

Row | clearance | SMILES
32 | 9 mL/min/kg | CC(C)COC(=O)N[C@H](C(=O)N1C[C@H](C2CCCCC2)C[C@H]1C(=O)N[C@@H](CC(F)F)C(=O)NCCc1c(F)cc(-c2nnn[nH]2)cc1F)C(C)C
33 | 36 mL/min/kg | CC(C)COC(=O)N[C@H](C(=O)N1CC(c2ccccc2)C[C@@H]1C(=O)N[C@@H](CC(F)F)C(=O)NCCc1c(F)cc(C(=O)O)cc1F)C(C)C (some centres undefined)
34 | 44 mL/min/kg | CC(C)COC(=O)N[C@H](C(=O)N1CC(C2CCCCC2)C[C@@H]1C(=O)N[C@@H](CC(F)F)C(=O)NCCc1c(F)cc(C(=O)O)cc1F)C(C)C (some centres undefined)
35 | 222 mL/min/kg | CC(C)COC(=O)N[C@H](C(=O)N1CC(OCc2ccccc2)C[C@@H]1C(=O)N[C@@H](CC(F)F)C(=O)NCCc1c(F)cc(C(=O)O)cc1F)C(C)C (stereo in doubt; trans)

system: not listed separately; test: Volume distribution in rats at 2 mg/kg; type: ADME, organism-based; set-up: dose 2 mg/kg; conditions: rat, in vivo, read-out: Vdss

Row | Vd | SMILES
36 | 0.8 L/kg | CC(C)COC(=O)N[C@H](C(=O)N1C[C@H](C2CCCCC2)C[C@H]1C(=O)N[C@@H](CC(F)F)C(=O)NCCc1c(F)cc(C(=O)NS(C)(=O)=O)cc1F)C(C)C

biological target: T1, Hepatitis C virus serine protease, NS3/NS4A; test: Inhibitory activity against Hepatitis C virus Non structural protein 3 serine protease/Non structural protein 4A serine protease: Not active at 50 uM; type: protein-complex assay, Hepacivirus hominis; conditions: not given

Row | Ki | SMILES
37 | Not Active | COC(=O)c1cc(F)c(CCNC(=O)[C@H](CC(F)F)NC(=O)[C@@H]2C[C@@H](C3CCCCC3)CN2C(=O)[C@@H](NC(=O)OCC(C)C)C(C)C)c(F)c1

system: not listed separately; test: Half life in rats at 2 mg/kg; type: ADME, organism-based; set-up: dose 2 mg/kg; conditions: rat, in vivo

Row | half-life | SMILES
38 | 19 min | CC(C)COC(=O)N[C@H](C(=O)N1C[C@H](C2CCCCC2)C[C@H]1C(=O)N[C@@H](CC(F)F)C(=O)NCCc1c(F)cc(C(=O)NS(C)(=O)=O)cc1F)C(C)C

system: not listed separately; test: Area under curve in rats at 2 mg/kg; type: ADME, organism-based; set-up: dose 2 mg/kg; conditions: rat, in vivo

Row | AUC | SMILES
39 | 0.9 µM·h | CC(C)COC(=O)N[C@H](C(=O)N1C[C@H](C2CCCCC2)C[C@H]1C(=O)N[C@@H](CC(F)F)C(=O)NCCc1c(F)cc(C(=O)NS(C)(=O)=O)cc1F)C(C)C
